Each structure is given as a SMILES string. pIC50: −log10 of the molar value. Structures can show the parent of a compound that is named as a salt.

This experiment deals with T1, NLRP3 (Homo sapiens, UniProt Q96P20).
T1 construct: Seed THP-1 cells (25,000 cells/well) containing 1.0 μg/ml LPS in 40 μl of RPMI medium; host or cells: THP-1 cells
T1 sequence (Q96P20 whole entry): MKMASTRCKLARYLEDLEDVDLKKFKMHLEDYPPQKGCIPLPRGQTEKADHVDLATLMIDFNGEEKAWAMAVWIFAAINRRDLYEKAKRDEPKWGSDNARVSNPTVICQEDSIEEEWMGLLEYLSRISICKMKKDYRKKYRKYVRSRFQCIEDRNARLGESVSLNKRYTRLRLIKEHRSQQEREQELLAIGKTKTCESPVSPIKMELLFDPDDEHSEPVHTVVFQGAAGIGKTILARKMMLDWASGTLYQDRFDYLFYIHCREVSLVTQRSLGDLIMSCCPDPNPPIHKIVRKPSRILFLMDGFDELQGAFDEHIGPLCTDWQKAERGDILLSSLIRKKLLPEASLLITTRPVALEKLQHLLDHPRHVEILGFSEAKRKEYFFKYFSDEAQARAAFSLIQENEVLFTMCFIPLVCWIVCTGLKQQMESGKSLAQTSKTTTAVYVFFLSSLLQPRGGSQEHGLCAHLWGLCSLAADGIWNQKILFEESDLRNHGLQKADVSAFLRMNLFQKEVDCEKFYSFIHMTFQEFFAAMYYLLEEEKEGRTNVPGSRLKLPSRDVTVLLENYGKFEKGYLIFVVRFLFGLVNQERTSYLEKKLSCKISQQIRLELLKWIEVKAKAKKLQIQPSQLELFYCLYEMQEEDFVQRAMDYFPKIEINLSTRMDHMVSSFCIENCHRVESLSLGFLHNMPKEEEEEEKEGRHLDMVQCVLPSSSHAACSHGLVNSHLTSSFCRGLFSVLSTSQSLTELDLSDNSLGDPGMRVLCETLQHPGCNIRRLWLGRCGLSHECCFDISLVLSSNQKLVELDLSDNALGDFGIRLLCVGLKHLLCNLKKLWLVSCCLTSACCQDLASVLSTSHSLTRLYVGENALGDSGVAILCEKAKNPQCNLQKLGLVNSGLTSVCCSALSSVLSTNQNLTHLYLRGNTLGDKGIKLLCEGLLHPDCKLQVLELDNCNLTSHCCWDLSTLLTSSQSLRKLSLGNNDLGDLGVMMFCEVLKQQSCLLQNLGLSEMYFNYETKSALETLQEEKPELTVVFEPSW
In words: THP-1 Cells Pyroptosis Assay. The experiment is classed as cell-based. The note with it: THP-1 cells with 1.0 μg/ml LPS; compound 3 hours; nigericin 5 μM 1 hr; resazurin readout. The method, boiled down:
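THP-1 cells in serum-free RPMI primed with LPS (1 μg/ml FAC), incubated with compound 3 h at 37 °C, then nigericin (5 μM FAC) for 1 h. Supernatant removed after spin; viability read by resazurin (100 μM FAC) reduction after a further 1-2 h at 37 °C.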
Compound `CCN1CC2OCCN(c3nc4nc(-c5c(C)cc(C#N)cc5O)ccc4o3)C2C1` [Example 80, 3-Hydroxy-5-methyl-4-[2-[rel-(4aS,7aR)-6-ethyl-2,3,4a,5,7,7a-hexahydropyrrolo[3,4-b][1,4]oxazin-4-yl]oxazolo[4,5-b]pyridin-5-yl]benzonitrile] had a pIC50 of 6.96.

As to `CCN1CC[C@@H](F)[C@@H](Nc2nc3nc(-c4c(C)cc(Cl)cc4O)ccc3o2)C1` [Example 99A, 5-Chloro-2-[2-[[(3S,4R)-1-ethyl-4-fluoro-3-piperidyl]amino]oxazolo[4,5-b]pyridin-5-yl]-3-methyl-phenol], the pIC50 was 8.72. With `Cc1cc(C#N)cc(O)c1-c1ccc2oc(NC3CCCN4C[C@@H](O)CC34)nc2n1` (stereo partly drawn) [Example 115, 3-Hydroxy-5-methyl-4-[2-[[(2S)-2-hydroxy-1,2,3,5,6,7,8,8a-octahydroindolizin-8-yl]amino]oxazolo[4,5-b]pyridin-5-yl]benzonitrile;2,2,2-trifluoroacetic acid] the figure was 7.31; with `Cc1cc(Cl)cc(O)c1-c1ccc2oc(CC3CN(C(C)C)CCO3)nc2n1` (centres unmarked) [Example 88, 5-Chloro-2-[2-[(4-isopropylmorpholin-2-yl)methyl]oxazolo[4,5-b]pyridin-5-yl]-3-methyl-phenol;formic acid], 8.22. With `CCN1CCC[C@@H](Nc2nc3nc(-c4c(O)cc(Cl)cc4C#N)ccc3o2)C1` [Example 23, 5-Chloro-2-[2-[[(3R)-1-ethyl-3-piperidyl]amino]oxazolo[4,5-b]pyridin-5-yl]-3-hydroxy-benzonitrile] the figure was 8.38; with `Cc1ccc(C#N)c(O)c1-c1ccc2oc(N[C@@H]3CCCN(C)C3)nc2n1` [Example 82, 2-Hydroxy-4-methyl-3-[2-[[(3R)-1-methyl-3-piperidyl]amino]oxazolo[4,5-b]pyridin-5-yl]benzonitrile;2,2,2-trifluoroacetic acid], 6.89; with `CCN1CCC[C@@H](Nc2nc3nc(-c4c(C)cc(C(F)(F)F)cc4O)ccc3o2)C1` [Example 14, 2-[2-[[(3R)-1-Ethyl-3-piperidyl]amino]oxazolo[4,5-b]pyridin-5-yl]-3-methyl-5-(trifluoromethyl)phenol], 9.00. The same measure for `Cc1cc(C(F)(F)F)cc(O)c1-c1ccc2oc(NCC34CC(CN3)C4)nc2n1` [Example 43, 2-[2-(2-Azabicyclo[2.1.1]hexan-1-ylmethylamino)oxazolo[4,5-b]pyridin-5-yl]-3-methyl-5-(trifluoromethyl)phenol;dihydrochloride]: 7.52; for `Cc1cc(C(F)(F)F)cc(O)c1-c1ccc2oc(C3CCC(=O)NC3)nc2n1` (racemic) [Example 9, (rac)-5-(5-(2-Hydroxy-6-methyl-4-(trifluoromethyl)phenyl)oxazolo[4,5-b]pyridin-2-yl) piperidin-2-one]: 7.82; for `Cc1cc(Cl)cc(O)c1-c1ccc2oc(NCC3CC(O)C3)nc2n1` (centres unmarked) [Example 92, 5-Chloro-2-[2-[(3-hydroxycyclobutyl)methylamino]oxazolo[4,5-b]pyridin-5-yl]-3-methyl-phenol]: 7.57. For `Cc1cc(C(F)(F)F)cc(O)c1-c1ccc2oc(N3CCC(CO)CC3)nc2n1` [Example 78, 2-[2-[4-(Hydroxymethyl)-1-piperidyl]oxazolo[4,5-b]pyridin-5-yl]-3-methyl-5-(trifluoromethyl)phenol], the negative-log IC50 (pIC50) was 7.23.

Usually pIC50 stands for −log10 of the IC50, conventionally taken in molar units. A high value points to a low IC50.

(Values after US20240279237A1, “FUSED BICYCLIC HETEROARYL COMPOUNDS USEFUL AS NLRP3 INHIBITORS” (Hoffmann-La Roche Inc., priority 2021, published 2024).)
